Data taken from patent US9248124B2, “Use of inhibitors of IκB kinase for the treatment of cancer” (Millennium Pharmaceuticals, Inc., priority 2001, dated 2016).
“Also recorded” adds a separate entry of the source.

Key:
[1] = test system: IκBα phosphorylation and degradation in MM.1S cells; experiment: Immunoblot of IκBα phosphorylation and degradation triggered by TNFα in MM.1S cells; format: cell-based, human; settings: Dex 1 μM 18 h, PS-341 5 μM 60 min, compound 1 10 μM 90 min, TNFα 5 ng/mL 5 min, FIG. 7; for TNFα-induced phosphorylation of IκBα: presence or absence of IL-6
Procedure: (§1) MM cells were cultured with PS-341 or compound 1; harvested; washed; and lysed using lysis buffer: 50 mM Tris-HCl (pH 7.4), 150 mM NaCl, 1% NP-40, 5 mM EDTA, 5 mM NaF, 2 mM Na3VO4, 1 mM PMSF, 5 μg/mL leupeptin, and 5 μg/mL aprotinin. For detection of phospho-IκBα, IκBα, phospho-MAPK, phospho-STAT3, ERK2 or alpha-tubulin, cell lysates were subjected SDS-PAGE, transferred to PVDF membrane (Bio-Rad Laboratories, Hercules, Calif.), and immunoblotted with anti-phospho-IκBα, -IκBα, -phospho-MAPK, or -phospho-STAT3 Abs (Cell Signaling, Beverly, Mass.), and anti-alpha-tubulin (Sigma) Abs.
Inhibition of IκBα phosphorylation by compound 1 was assayed in MM.1S and patient MM cells triggered by TNFα. […] To study the dose-dependent effect of compound 1, MM.1S cells were pre-treated with 1.25-40 μM compound 1 for 90 min, and then stimulated by TNFα (5 ng/mL).
The effect of Dex, compound 1, PS-341 and/or IL-6 on TNFα induced phosphorylation of IκBα in MM.1S cells was next examined. […] In contrast compound 1, in the presence or absence of IL-6, inhibits phosphorylation of IκBα. Dex inhibits TNFα-induced degradation of IκBα, whereas IL-6 blocks this effect. Both PS-341 and compound 1 inhibit degradation of IκBα, in the presence or absence of IL-6.

[2] = test system: MM.1S cells; experiment: DNA synthesis ([3H]-TdR uptake) in MM.1S cells with Dex, IL-6, Thal or IMiD3; format: cell-based, human; settings: IMiD3 0.25-1 μM, dose dependent, 48 h; FIG. 9
Procedure: (§2) Proliferation was measured as previously described (Hideshima et al., Blood 96:2943 (2000)). MM cells (3×10^4 cells/well) were incubated in 96-well culture plates (Costar, Cambridge, Mass.) in the presence of media, PS-341, compound 1 and/or Dex or recombinant human IL-6 (Genetics Institute, Cambridge, Mass.) for 48 h at 37° C. DNA synthesis was measured by [^3H]-thymidine ([^3H]-TdR, NEN Products, Boston, Mass.) uptake. Cells were pulsed with [^3H]TdR (0.5 μCi/well) during the last 8 h of 48 h cultures. All experiments were performed in triplicate.

[3] = test system: MM.1S cells; settings: previously reported, Hideshima et al. Blood 96:2943 (2000); cited from earlier work
[4] = test system: p42/44 MAPK phosphorylation; experiment: Immunoblot of IL-6 induced p42/44 MAPK phosphorylation in MM.1S cells; format: cell-based, human; settings: IL-6 50 ng/mL for 5 min, compound 1 10 μM 90 min, PS-341 5 μM 60 min, FIG. 5
Procedure: as §1

[5] = test system: ICAM-1 and VCAM-1 expression on both BMSCs and MM cells; settings: Hideshima et al., Cancer Res. 61:3071 (2001); cited from earlier work
[6] = test system: MM.1S, U266, and RPMI8226 cell lines; experiment: DNA synthesis ([3H]-TdR uptake) in MM cell lines; format: cell-based, human; settings: 48 h; FIG. 3B
Procedure: as §2
To study the direct effect of compound 1 on MM cells, [3H]-TdR uptake was measured in MM.1S, U266, and RPMI8226 cell lines cultured for 48 h in the presence of compound 1 (1.5-50 μM).

For C[C@@H]1C[C@H]2[C@@H]3CCC4=CC(=O)C=C[C@]4(C)[C@@]3(F)[C@@H](O)C[C@]2(C)[C@@]1(O)C(=O)CO [Dex, dexamethasone, reference compound], which “TNFα-induced phosphorylation of IκBα” value [1] is on record?
The value was “does not inhibit”.

Which “DNA synthesis in MM.1S cell” value [2] does the source give for Nc1cccc2c1CN(C1CCC(=O)NC1=O)C2=O (stereo not shown) [IMiD3, reference compound] here?
The value was “significantly (p<0.001) inhibited”.

What about the MM.1S cell growth [3] of the same compound?
The MM.1S cell growth was “inhibit”.

For COc1cccc(-c2cc(=O)c3ccccc3o2)c1N [PD98059], which “p42/44 MAPK phosphorylation” value [4] is on record?
The value was “selectively inhibits”.

With CC(C)C[C@H](NC(=O)[C@H](Cc1ccccc1)NC(=O)c1cnccn1)B(O)O [PS-341, reference compound] as the compound, how does the “p42/44 MAPK phosphorylation” value [4] read?
Its value is “inhibits”.

And the “TNFα induction of ICAM-1 and VCAM-1 expression” value [5]?
Its value is “blocks induction”.

What about the “TNFα-induced phosphorylation of IκBα” value [1] of the same compound?
Its value is “does not inhibit; also recorded: enhances”.

And the “TNFα-induced degradation of IκBα” value [1]?
The value was “inhibit”.

And the “[3H]-TdR uptake in all cell lines tested” value [6]?
Its value is “completely inhibited”.

Which MM.1S cell growth [3] does the source give for O=C1CCC(N2C(=O)c3ccccc3C2=O)C(=O)N1 (stereo not shown) [Thalidomide] here?
Its MM.1S cell growth is “inhibit”.
